Assay results as given in patent publication US11779597B2, “Method of treating Parkinson's and other neurodegenerative diseases” (Vector Vitale IP LLC, priority 2019, dated 2023).

Tests used:
Format in all cases: in vivo
microglia = test: Functional and phenotypic properties of microglia in LPS rat models; conditions: LPS animal models of PD
Protocol: On the 1st day of the experiment, rats were either operated to model hemi-parkinsonism or sham operated. From the 9th to the 18th day of the experiment, the animals were injected either deuterium-depleted water or the test substance, according to their allocation into groups, for 10 days. On the 8th day of the experiment (before initiation of treatment—apomorphine test I) and on the 21st day of the experiment (after the end of administering the test substance —apomorphine test II) the animals underwent an apomorphine test to analyze the development of hemi-parkinsonism which correlates with the number of destroyed dopaminergic neurons. In addition, a follow-up analysis of fecal water content was carried out, i.e., before the start of treatment on the 8th day after the operation, as well as on the 21st (after the end of treatment) and the 28th day (before autopsy). On the 24th day of the experiment, behavioral tests were carried out in all groups. All animals were weighed before autopsy. During autopsy, ⅔ of animals from each group were sacrificed by cervical dislocation and brain and blood samples were collected for further biochemical and immunological tests. ⅓ of the animals were used for further immunohistochemical studies of the brain; for this purpose, under anesthesia, a procedure of fast, controlled and uniform fixation of the whole body of the animal was performed using 4% paraformaldehyde perfused through the heart of the rat to obtain the best preservation of the brain architecture for immunohistochemistry. Gage G J, et al., J Vis Exp. 2012 Jul. 30; (65).
(§1) To assess the anti-inflammatory and immunomodulating effects of the test substance, microglia and peritoneal macrophages were isolated. Phenotypic and functional features of peripheral blood phagocytes were evaluated without their fractioning (using whole blood). […]
(§2) Phagocytic activity of microglia, peritoneal macrophages and peripheral blood phagocytes was analyzed on a flow cytometer using FITC-labeled S. aureus Wood 46 cells as an object of phagocytosis. […]
(§3) Oxidative metabolism of phagocytes of various localization was analyzed by flow cytometry using the cell-permeant 2′7′-dichlorodihydrofluorescein-diacetate (DHP) (carboxy-H2DCFDA, Invitrogen, USA) which is converted by intracellular esterases to the nonfluorescent membrane-impermeable carboxy-H2DCF form.
(§4) The phenotypic profile of phagocytes of various localization was characterized by the expression of markers of functional maturity and metabolic polarization (CD206, CD80 and CD86), which was determined by flow cytometry and the use of monoclonal antibodies of appropriate specificity marked with fluorescent dyes (Abcam, Becton Dickinson).

[1] = system: circulating monocytes and granulocytes; test: Functional and phenotypic properties of circulating phagocytes in LPS rat models; conditions: animal models of PD
Protocol: On the 1st day of the experiment, rats were either operated to model hemi-parkinsonism or sham operated. From the 9th to the 18th day of the experiment, the animals were injected either deuterium-depleted water or the test substance, according to their allocation into groups, for 10 days. On the 8th day of the experiment (before initiation of treatment—apomorphine test I) and on the 21st day of the experiment (after the end of administering the test substance —apomorphine test II) the animals underwent an apomorphine test to analyze the development of hemi-parkinsonism which correlates with the number of destroyed dopaminergic neurons. In addition, a follow-up analysis of fecal water content was carried out, i.e., before the start of treatment on the 8th day after the operation, as well as on the 21st (after the end of treatment) and the 28th day (before autopsy). On the 24th day of the experiment, behavioral tests were carried out in all groups. All animals were weighed before autopsy. […]
as §1, §2, §3, §4

[2] = system: dopaminergic neurons in the black substance in rat models of Parkinson's disease (6-OHDA); test: Apomorphine test / destruction of dopaminergic neurons after prophylactic administration; conditions: 6-OHDA rat models
Protocol: Methods: Adult mature rodents were used in the study. […] Before prophylactic administration of the experimental drugs, the animals underwent an open field test to assay their general locomotor activity levels and anxiety. The prophylactic course consisted of 10 daily intraperitoneal injections of the drugs (in the case of combination drug, its components were administered at an interval of 2 hours). After the end of prophylactic course, Parkinson's disease was modelled in the animals. […] Ten days after the last (second) apomorphine test, the animals' behavioral responses were assessed in the open field test followed by euthanasia and analysis of functional (metabolic and phenotypic) profiles of phagocytes of different localization. Thus, the study of the functional profile of phagocytes in rat models of Parkinson's disease was performed on day 28 after the end of the course of prophylactic treatment with the experimental drugs. Resident peritoneal macrophages were isolated from sterile cell suspension of peritoneal exudate; enrichment of the suspension was carried out by 2-hour adhesion. Non-adherent and dead cells were separated by centrifugation. Functional characteristics of circulating phagocytes (monocytes and neutrophils) were evaluated in whole blood taken into a tube containing EDTA used as an anticoagulant. Mononuclear and polymorphonuclear phagocytes were analyzed on a flow cytofluorimeter using a gating method. Phagocytes of microglia were isolated using a Percoll density gradient. To assess the phenotypic profile of phagocytes, expression indices of the pan-phagocytic marker CD14 (co-receptor of the bacterial lipopolysaccharide) and the marker of alternative polarization of phagocytes CD206 (mannose receptor 1) were used. […] The hemogram parameters were analyzed on the hematological analyzer Particle counter model PCE 210 (ERMA, Japan) adapted for the study of blood cells of rats and mice.

Substance: ^64Zn-enriched zinc aspartate [^64Zne-asp]
- expression of CD86 by microglia (microglia): significant increase
- expression of CD206 by microglia (microglia): increased expression
- oxidative metabolism of microglia (microglia): slightly but statistically significantly increased
- phagocytic activity of microglia (microglia): sharp increase
- expression levels of all three markers (CD206, CD80, CD86) by circulating phagocytes [1]: increase
- functional reserve of oxidative metabolism of circulating phagocytes [1]: restore
- oxidative metabolism of circulating phagocytes of both populations [1]: sharply reduced
- Number of animals with 100% destruction of neurons (%) ([2]; prophylactic 10 daily i.p. injections, at completion of the experiment): 35%
- Rate of rotational movements in animals with 100% destruction of neurons (r/30 min) ([2]; prophylactic i.p., apomorphine test): 224.3 ± 35.9 r/30 min
- animals with complete loss of neurons, less than in the control ([2]; prophylactic i.p., versus control 75%): over 50%
